Key:
Format in all cases: in vivo
[1] = tested on: diamondback moth (Plutella xylostella); test: Test A: control of diamondback moth on radish plant, foliar spray; details: sprayed at 50 ppm, held 6 days
How it was run: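 Radish plants 12–14 days old, pre-infested with about 50 neonate larvae, sprayed at 50 ppm in 10% acetone/water with 300 ppm X-77 surfactant; three replicates. After 6 days at 25° C and 70% RH, feeding damage was scored visually and mortality counted.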

[2] = tested on: fall armyworm (Spodoptera frugiperda); test: Test B: control of fall armyworm on corn (maize) plant, foliar spray; details: sprayed at 50 ppm
How it was run: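 4-5-day-old corn plants pre-infested with 10-15 1-day-old larvae on insect diet, then sprayed with compound at 50 ppm in 10% acetone/90% water with 300 ppm surfactant, three replicates. Held 6 days at 25° C, 70% RH; feeding damage assessed visually and mortality rated.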

[3] = tested on: western flower thrips (Frankliniella occidentalis); test: Test E: control of western flower thrips on Soleil bean plant, contact and/or systemic; details: held 6 days
How it was run: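 5–7-day-old Soleil bean plants were sprayed at 250 or 50 ppm in 10% acetone/90% water with 300 ppm X-77 surfactant, three replicates. After drying 1 h, 22–27 adult thrips were added per unit. Mortality and plant damage were rated after 6 days at 25 °C and 45–55% RH.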

Measured: levels of control efficacy (20% or less feeding damage or 80% or more mortality)

O=C(CNC(=O)c1ccc(C2=NOC(c3cc(Br)cc(C(F)(F)F)c3)(C(F)(F)F)C2)c2ccccc12)NCC(F)(F)F (racemic) [Compound 52]
very good to excellent: [1] | [2] | [3]; sprayed at 50 ppm | [3]; sprayed at 250 ppm

O=C(CNC(=O)c1ccc(C2=NOC(c3cc(Br)cc(Br)c3)(C(F)(F)F)C2)c2ccccc12)NCC(F)(F)F (centres unmarked) [Compound 23]
very good to excellent: [1] | [2] | [3]; sprayed at 50 ppm | [3]; sprayed at 250 ppm
